Assay results reported in PMC2263054, “Functional evolution of the vitamin D and pregnane X receptors” (BMC Evolutionary Biology, 2007).
Read-outs that look alike come from different tables or passages of the source.

What was measured:
Sea lamprey VDR = target: T1, Sea lamprey VDR (Petromyzon marinus, UniProt Q7ZZY9); format: cell-based; conditions: for Effect on sea lamprey VDR: screening for activators, at least three concentrations of each drug
T1 sequence (Q7ZZY9 92-406): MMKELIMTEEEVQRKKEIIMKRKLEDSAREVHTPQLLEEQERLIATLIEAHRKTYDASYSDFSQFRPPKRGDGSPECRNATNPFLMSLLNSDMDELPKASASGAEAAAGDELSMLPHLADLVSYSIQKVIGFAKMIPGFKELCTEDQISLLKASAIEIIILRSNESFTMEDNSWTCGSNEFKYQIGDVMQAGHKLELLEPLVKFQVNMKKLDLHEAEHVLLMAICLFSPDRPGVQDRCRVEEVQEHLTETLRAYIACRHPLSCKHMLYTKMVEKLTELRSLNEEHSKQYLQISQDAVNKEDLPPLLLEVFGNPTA

Mouse VDR = target: T2, Mouse VDR (Mus musculus, UniProt P48281); assay: luciferase reporter transactivation assay in HepG2-NTCP cells, full-length mVDR with CYP3A4-PXRE-Luc; conditions: for Mouse VDR relative efficacy: relative to maximal reference compound (0.5 μM calcitriol, efficacy = 1.0)
T2 sequence (P48281 1-422): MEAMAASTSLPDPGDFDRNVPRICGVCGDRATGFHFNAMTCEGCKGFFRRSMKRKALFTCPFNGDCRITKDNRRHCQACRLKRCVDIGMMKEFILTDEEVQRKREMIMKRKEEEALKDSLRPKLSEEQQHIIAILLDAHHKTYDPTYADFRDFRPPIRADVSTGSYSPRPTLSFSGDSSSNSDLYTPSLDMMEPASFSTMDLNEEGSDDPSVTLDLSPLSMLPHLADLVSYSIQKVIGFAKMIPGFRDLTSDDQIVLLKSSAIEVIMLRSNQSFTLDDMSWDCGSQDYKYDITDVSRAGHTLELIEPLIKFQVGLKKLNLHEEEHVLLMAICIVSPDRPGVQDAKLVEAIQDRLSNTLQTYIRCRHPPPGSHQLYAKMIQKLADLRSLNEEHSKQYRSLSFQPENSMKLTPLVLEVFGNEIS

Human VDR = target: T3, Human VDR (Homo sapiens, UniProt P11473); assay: luciferase reporter transactivation assay in HepG2-NTCP cells, full-length hVDR with CYP3A4-PXRE-Luc; conditions: for Human VDR EC50 ± SD: unit not given, also cells saying No effect
T3 sequence (P11473 1-427): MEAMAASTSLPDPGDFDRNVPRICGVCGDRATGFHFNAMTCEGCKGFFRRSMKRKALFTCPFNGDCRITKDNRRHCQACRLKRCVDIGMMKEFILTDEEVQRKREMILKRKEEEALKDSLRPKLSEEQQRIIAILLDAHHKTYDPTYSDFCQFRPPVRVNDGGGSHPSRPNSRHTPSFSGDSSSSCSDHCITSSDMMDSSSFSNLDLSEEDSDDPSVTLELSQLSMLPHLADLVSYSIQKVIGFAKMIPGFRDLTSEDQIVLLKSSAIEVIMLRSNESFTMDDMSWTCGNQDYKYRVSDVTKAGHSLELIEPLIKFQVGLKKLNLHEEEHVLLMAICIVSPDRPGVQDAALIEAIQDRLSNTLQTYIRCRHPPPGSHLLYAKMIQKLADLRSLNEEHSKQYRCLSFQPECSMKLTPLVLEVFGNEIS

Zebrafish VDR = target: T4, Zebrafish VDR (Danio rerio, UniProt Q9PTN2); assay: luciferase reporter transactivation assay in HepG2-NTCP cells, GAL4/zfVDR LBD chimera with tk-UAS-Luc; format: cell-based; conditions: for Zebrafish VDR EC50 ± SD / EC50: HepG2-NTCP cells, luciferase reporter; for Zebrafish VDR EC50 ± SD: unit not given, also cells saying No effect; for EC50: read-out: Zebrafish VDR EC50 ± SD; for Effect on zebrafish VDR: screening for activators, at least three concentrations of each drug
T4 sequence (Q9PTN2 121-453): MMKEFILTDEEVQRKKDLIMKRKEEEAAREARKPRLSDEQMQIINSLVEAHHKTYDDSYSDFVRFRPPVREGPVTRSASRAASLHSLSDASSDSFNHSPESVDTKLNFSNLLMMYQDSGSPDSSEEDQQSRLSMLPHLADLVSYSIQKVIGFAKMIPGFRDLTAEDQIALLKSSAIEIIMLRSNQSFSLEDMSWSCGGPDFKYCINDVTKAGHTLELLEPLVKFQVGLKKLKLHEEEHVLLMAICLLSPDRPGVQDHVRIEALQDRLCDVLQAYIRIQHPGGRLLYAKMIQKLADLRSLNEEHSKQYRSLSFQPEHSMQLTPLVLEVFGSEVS

Xenopus laevis VDR = target: T5, Xenopus laevis VDR (Xenopus laevis, UniProt O13124); assay: luciferase reporter transactivation assay in HepG2-NTCP cells, GAL4/xlVDR LBD chimera with tk-UAS-Luc; format: cell-based; conditions: for Xenopus VDR EC50 ± SD / EC50: HepG2-NTCP cells, luciferase reporter; for Xenopus VDR EC50 ± SD: unit not given, also cells saying No effect; for EC50: read-out: Xenopus VDR EC50 ± SD; for Effect on Xenopus laevis VDR: screening for activators, at least three concentrations of each drug
T5 sequence (O13124 90-422): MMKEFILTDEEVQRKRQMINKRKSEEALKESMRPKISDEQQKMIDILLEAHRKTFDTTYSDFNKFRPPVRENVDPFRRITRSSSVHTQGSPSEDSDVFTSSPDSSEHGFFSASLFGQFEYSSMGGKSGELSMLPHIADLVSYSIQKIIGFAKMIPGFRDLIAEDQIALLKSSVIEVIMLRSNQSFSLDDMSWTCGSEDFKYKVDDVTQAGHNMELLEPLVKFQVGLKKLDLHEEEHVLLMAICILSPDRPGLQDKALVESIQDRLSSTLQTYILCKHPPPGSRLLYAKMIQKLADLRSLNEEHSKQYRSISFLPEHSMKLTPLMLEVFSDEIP

Ciona VDR/PXR = conditions: HepG2-NTCP cells, luciferase reporter; unit not given; also cells saying No effect
[1] = test system: ethoxyresorufin O-deethylase (EROD) activity (CYP1A-like activity); assay: EROD assay in zebrafish primary hepatocytes; conditions: zebrafish primary hepatocytes; DIM at concentrations of 2 μM and greater
Protocol: The cells are cultured at 26°C in ambient atmosphere.

[2] = test system: testosterone 6β-hydroxylation; assay: testosterone hydroxylation (HPLC) in sea lamprey primary hepatocytes; format: cell-based; conditions: concentration ranges per compound
Protocol: 100 μL of sample, calibration standard, or quality material standard were pipetted into separate microcentrifuge tubes and mixed with 100 μL of methanol. Samples were vortexed and centrifuged at 13,000 rpm for 4 min. The supernatant was then injected into the HPLC.
The flow rate was 1.2 mL/min and total run time was 25 min.

[3] = HepG2-NTCP cells, luciferase reporter, unit not given, also cells saying No effect
[4] = HepG2-NTCP cells, luciferase reporter
[5] = relative to maximal reference compound (1 μM calcitriol, efficacy = 1.0)

With `C[C@H](CCC(=O)O)[C@H]1CC[C@H]2[C@@H]3CC[C@@H]4C[C@H](OS(=O)(=O)O)CC[C@]4(C)[C@H]3CC[C@]12C` [Lithocholic acid 3-sulfate] the “Sea lamprey VDR EC50 ± SD” value (Sea lamprey VDR) was “No effect”, the “Mouse VDR EC50 ± SD” value (Mouse VDR; [3]) was “No effect” and the “Human VDR EC50 ± SD” value (Human VDR; [4]) was “No effect”. For the same molecule, the “Zebrafish VDR EC50 ± SD” value (Zebrafish VDR) was “No effect”, the “Xenopus VDR EC50 ± SD” value (Xenopus laevis VDR) was “No effect” and the “Ciona VDR/PXR EC50 ± SD” value (Ciona VDR/PXR) was “No effect”.
For `C=C1/C(=C\C=C2/CCC[C@]3(C)[C@@H]([C@H](C)CCCC(C)C)CC[C@@H]23)C[C@@H](O)C[C@@H]1O` [1α-Hydroxyvitamin D3], the EC50 (Mouse VDR) was 0.3 ± 0.04 nM, the EC50 (Human VDR) was 4.3 ± 0.5 nM and the EC50 (Zebrafish VDR) was 18 ± 1.4 nM. For the same molecule, the EC50 (Xenopus laevis VDR) was 157 ± 10 nM.
In the case of `C=C1CC[C@H](O)C/C1=C/C=C1\CCC[C@]2(C)[C@@H]([C@H](C)CC[C@@H](O)C(C)(C)O)CC[C@@H]12` [24(R),25-(OH)2-Vitamin D3], the EC50 (Sea lamprey VDR; HepG2-NTCP cells, luciferase reporter, read-out: Sea lamprey VDR EC50 ± SD) is reported as 5600 ± 800 nM, the “Sea lamprey VDR relative efficacy” value (Sea lamprey VDR; relative to maximal reference compound (0.5 μM calcitriol, efficacy = 1.0)) is reported as 0.9 and the EC50 (Mouse VDR; read-out: Mouse VDR EC50 ± SD, HepG2-NTCP cells, luciferase reporter) is reported as 300 ± 20 nM. The “Mouse VDR relative efficacy” value (Mouse VDR) was 1.7, the EC50 (Human VDR; read-out: Human VDR EC50 ± SD, HepG2-NTCP cells, luciferase reporter) was 300 ± 20 nM and the “Human VDR relative efficacy” value (Human VDR; [5]) was 0.9. For the same molecule, the EC50 (Zebrafish VDR) was 700 ± 60 nM, the “Zebrafish VDR relative efficacy” value (Zebrafish VDR; [5]) was 0.6 and the EC50 (Xenopus laevis VDR) was 11000 ± 1700 nM. For the same molecule, the “Xenopus VDR relative efficacy” value (Xenopus laevis VDR; [5]) was 0.20 and the “Ciona VDR/PXR EC50 ± SD” value (Ciona VDR/PXR) was “No effect”.
In the case of `C[C@H](CCC(=O)NCCS(=O)(=O)O)[C@H]1CC[C@H]2[C@@H]3CC[C@@H]4C[C@H](O)CC[C@]4(C)[C@H]3CC[C@]12C` [Taurolithocholic acid], the “Sea lamprey VDR EC50 ± SD” value (Sea lamprey VDR; [3]) is reported as “No effect”, the “Mouse VDR relative efficacy” value (Mouse VDR) is reported as 0.23 and the “Human VDR EC50 ± SD” value (Human VDR; [4]) is reported as “No effect”. For the same molecule, the “Zebrafish VDR EC50 ± SD” value (Zebrafish VDR) was “No effect”, the “Xenopus VDR EC50 ± SD” value (Xenopus laevis VDR) was “No effect” and the “Ciona VDR/PXR EC50 ± SD” value (Ciona VDR/PXR) was “No effect”.
With `c1ccc2c(Cc3c[nH]c4ccccc34)c[nH]c2c1` [3,3'-diindoylmethane] the “Effect on sea lamprey VDR” value (Sea lamprey VDR) was “No effect”, the “Effect on zebrafish VDR” value (Zebrafish VDR) was “No effect” and the “effect on EROD activity” value [1] was “caused a decrease in EROD activity”. For the same molecule, the “Effect on Xenopus laevis VDR” value (Xenopus laevis VDR) was “No effect”.
Work on `C=C1/C(=C\C=C2/CCC[C@]3(C)[C@@H]([C@H](C)/C=C/[C@H](C)C(C)C)CC[C@@H]23)C[C@@H](O)C[C@@H]1O` [1α-Hydroxyvitamin D2] yielded an EC50 (Mouse VDR) of 0.8 ± 0.1 nM, an EC50 (Human VDR) of 13 ± 1.2 nM and an EC50 (Zebrafish VDR) of 26 ± 1.7 nM. It also gave an EC50 (Xenopus laevis VDR) of 624 ± 49 nM.
With `C[C@]12CC[C@@H](O)C[C@@H]1CC[C@@H]1[C@@H]2CC[C@]2(C)C=CC[C@@H]12` [5α-androst-16-en-3α-ol] the “Effect on sea lamprey VDR” value (Sea lamprey VDR) was “No effect”, the “effect on testosterone 6β-hydroxylation” value [2] was “None of these compounds produced significant increases in testosterone 6β-hydroxylation” and the “Effect on zebrafish VDR” value (Zebrafish VDR) was “No effect”. For the same molecule, the “Effect on Xenopus laevis VDR” value (Xenopus laevis VDR) was “No effect”.
In the case of Pregnenolone sulfate, the “Effect on sea lamprey VDR” value (Sea lamprey VDR) is reported as “No effect”, the “effect on testosterone 6β-hydroxylation” value [2] is reported as “None of these compounds produced significant increases in testosterone 6β-hydroxylation” and the “Effect on zebrafish VDR” value (Zebrafish VDR) is reported as “No effect”. For the same molecule, the “Effect on Xenopus laevis VDR” value (Xenopus laevis VDR) was “No effect”.
